# According to patent US20250136652A1, “FUSION PROTEIN FOR TARGETING RECOMBINANT PROTEINS FOR DEGRADATION” (The Regents of the University of California, priority 2022, published 2025):
# Tested on: green fluorescent protein (GFP) target
# Assay: STUD-induced degradation of GFP target in Jurkat T cells, flow cytometry
# Assay type: cell-based
# Settings: GFP normalized by tagBFP, 72 hours following removal of lentivirus
# Description: Jurkat cells were lentivirally transduced with two plasmids. The first encodes a STUD, or control with a mutated degron, and a mCherry transduction marker separated by a 2A element and the second encodes GFP target protein and a BFP transduction marker separated by a 2A element. In the case of the SynZip STUD, the GFP target is fused to a heterodimeric SynZip protein complementary to the binding domain on the STUD. These transduced cells are analyzed for fluorescence by flow cytometry […] after removal of virus. Cells are first gated on these transduction markers to isolate relevant populations. Then, normalized GFP fluorescence is calculated by normalizing each cell's GFP fluorescence, as obtained by flow cytometry, by its BFP fluorescence. Then, the median normalized GFP fluorescence of each flow cytometry distribution is calculated and shown in the bar plot. Each dot represents the mean of the median normalized GFP fluorescence of three technical replicates in three independent experiments. […]
# Either the SynZip STUD and the antiGFP nanobody STUD in Jurkat T cells alongside a plasmid encoding either GFP fused to a complementary SynZip or GFP alone, respectively (FIG. 2B) were lentivirally transduced. 72 hours following removal of lentivirus, we assay for GFP fluorescence by flow cytometry. […] Representative histograms of unnormalized GFP fluorescence are also shown for reference. […]
substance,measurement,value
"SynZip STUD: Fusion protein SEQ ID NO: 413: lysine-free modified synZIP18 heterodimerization domain, flexible linker, C-terminal RRRG degron; 55 amino acids (SIAATLENDLARLENENARLERDIANLERDLARLEREEAYFGSGSGSGSGSRRRG)",fold change of median normalized GFP fluorescence,approximately 42 fold
